The experiment concerns Ehrlich ascites tumor cells. In words: Concentration-dependent inhibition of growth of Ehrlich ascites tumor cells (antiproliferative action). The format is cell-based. The source says:
The novel alkylphosphonoserines have a strong cytostatic and virustatic action. In order to determine the cytostatic action, the antiproliferative action was investigated in Ehrlich ascites tumor cells. It can be seen here that the compounds according to the invention have excellent cytostatic action. They can therefore be employed as cytostatics or virustatics, alone or in a mixture with other active substances, in the form of customary pharmaceutical preparations.
Concentration-dependent Inhibition of Growth of Ehrlich Ascites Tumor Cells

The compound `CCCCCCCCCCCCCCCCP(=O)(O)OC[C@H](N)C(=O)O` [n-Hexadecyl phosphono-L-serine, n-Hexadecylphosphono-L-serine] yielded an inhibition at 100 µM (Concentration 1 × 10^-4 M) of 89%. In addition, where the note is “Concentration 1 × 10^-5 M”, testing at 10 µM gave an inhibition of 13%. Moreover, the inhibition at 30 µM (Concentration 3 × 10^-5 M) came to 45%. For the setting “Concentration 3 × 10^-6 M”, this compound came in with an inhibition at 3 µM of 9%.

One may read the inhibition as how much of the control response was suppressed. High values mean a strong effect, low ones a weak effect.

The record behind these values is patent publication US5155099A, “Alkylphosphonoserines and pharmaceutical compositions useful as cytostatic agents” (Hafslund Nycomed Pharma Aktiengesellschaft, priority 1988, dated 1992).
